The record followed here is patent US10030016B2 (Sunesis Pharmaceuticals, Inc., priority 2009, dated 2018).

Counter-ions that a name gives are not always drawn. Like-named read-outs stand apart in the source and are kept apart here. Where only a bound is given, the exact number is not on record here.

One test has as its target PDK1 (Homo sapiens (Human), UniProt O15530). Kind of test: PDK1 kinase assay (coupled PDK1/AKT/FAM-crosstide assay, IMAP fluorescence polarization). The format is biochemical. The procedure, abridged: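 GST-tagged PDK1 (aa 51-359, 0.75 nM) was coupled to unphosphorylated GST-AKT2 140-467-PIFtide (10 nM) and 100 nM FAM-crosstide at 40 μM ATP, in Tris pH 7.2 buffer, for 30 min at 25 °C. Crosstide phosphorylation was read by IMAP fluorescence polarization (ΔmP) and fitted with a 4-parameter curve.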

Test [1] deals with phospho-akt (Thr308) in PC-3 cells. Kind of test: Inhibition of phospho-akt (Thr308) in PC-3 cells, MSD phospho-akt 308 ELISA kit. The format is cell-based. The conditions noted are these: 2 hours, no serum, read-out: EC50. The procedure, abridged:
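PC-3 cells were seeded overnight in growth medium with 10% FBS, then exposed to compound serially diluted threefold in serum-free medium for 2 hours. Lysates were captured overnight at 4 degrees on MSD plates and phospho-Akt Thr308 was detected electrochemiluminescently, against DMSO high and 5 μM wortmannin low controls.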
Background: An ELISA detects its analyte on a solid surface through an enzyme-linked reagent.

Where [2] appears, read: Homo sapiens, inhibition of P308 Akt in PC-3 cells using MSD.
[3] abbreviates: inhibition of phospo-PDK1 in vitro.
Setting [4] is: Homo sapiens, inhibition of P308 Akt in PC-3 cells, MSD.

Sequence of PDK1 (O15530 51-359): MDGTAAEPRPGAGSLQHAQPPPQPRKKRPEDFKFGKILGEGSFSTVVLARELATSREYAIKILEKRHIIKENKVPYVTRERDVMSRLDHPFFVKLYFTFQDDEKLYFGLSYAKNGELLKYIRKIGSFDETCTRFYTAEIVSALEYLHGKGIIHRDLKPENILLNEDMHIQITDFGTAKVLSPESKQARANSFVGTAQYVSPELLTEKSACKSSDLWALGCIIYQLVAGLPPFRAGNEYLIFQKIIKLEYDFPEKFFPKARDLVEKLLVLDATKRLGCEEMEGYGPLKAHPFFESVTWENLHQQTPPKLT

For `CNC(=O)c1cc(-c2ccc(CNc3ncc(C#N)cc3C(=O)N[C@@H](C)c3ccc(F)cc3)cc2)cnc1N` [Example 203, (S)-2-amino-5-(4-((5-cyano-3-(1-(4-fluorophenyl)ethylcarbamoyl)pyridin-2-ylamino)methyl)phenyl)-N-methylnicotinamide], the 50% inhibitory concentration (IC50) (commonly the concentration needed to halve the response being measured) on PDK1 (inhibition of PDK1 in vitro) is < 100 nM. In test [1] (setting [2]), the EC50 – broadly, the concentration needed to bring the measured effect to its halfway point – was < 1000 nM.
`CNC(=O)c1nc(-c2ccc(CNc3ncc(C#N)cc3C(=O)N[C@@H](C)c3ccc(F)cc3)cc2)cnc1N` [Example 216, (S)-3-amino-6-(4-((5-cyano-3-(1-(4-fluorophenyl)ethylcarbamoyl)pyridin-2-ylamino)methyl)phenyl)-N-methylpyrazine-2-carboxamide]: the IC50 on PDK1 (inhibition of PDK1 in vitro) was < 100 nM. Besides, the EC50 in test [1] (setting [2]) was < 1000 nM.
Turning to `C[C@H](NC(=O)c1cc(C(F)(F)F)cnc1NC/C=C/c1ccc2c(c1)NC(=O)/C2=C\c1cnc[nH]1)c1ccc(F)c(F)c1` [Example 15.2, 2-((E)-3-((Z)-3-((1H-imidazol-5-yl)methylene)-2-oxoindolin-6-yl)allylamino)-N-((S)-1-(3,4-difluorophenyl)ethyl)-5-(trifluoromethyl)nicotinamide], the IC50 against PDK1 (setting [3]) was in the range of 100 to 1000 nM. In addition, in test [1] (setting [4]), the EC50 is < 1000 nM.
As to `C[C@H](NC(=O)c1cc(C#N)cnc1NCC1CCN(c2cnc(N)cn2)CC1)c1ccc(F)cc1` [Example 61, (S)-2-(((1-(5-aminopyrazin-2-yl)piperidin-4-yl)methyl)amino)-5-cyano-N-(1-(4-fluorophenyl)ethyl)nicotinamide], the IC50 against PDK1 (inhibition of PDK1 in vitro) is 1000 to 5000 nM. In test [1] (setting [2]), the EC50 is > 10000 nM.
Regarding `CN(C(=O)c1cc(C(F)(F)F)cnc1NCc1ccc(-c2cnc3[nH]nc(N)c3c2)cc1)c1ccc(F)cc1` [Example 290, 2-(4-(3-amino-1H-pyrazolo [3,4-b]pyridin-5-yl)benzylamino)-N-(4-fluorophenyl)-N-methyl-5-(trifluoromethyl) nicotinamide], the IC50 on PDK1 (inhibition of PDK1 in vitro) was > 5000 nM. For the same compound, in test [1] (setting [2]), the EC50 was in the range of 1000 to 10000 nM.
Turning to `O=C1Nc2cc(OCCNc3ncccc3C(=O)NCc3ccc(F)c(F)c3)ccc2/C1=C/c1cnc[nH]1` [Example 22, (Z)-2-(2-(3-((1H-imidazol-5-yl)methylene)-2-oxoindolin-6-yloxy)ethylamino)-N-(3,4-difluorobenzyl)nicotinamide], on PDK1 (setting [3]), the IC50 was < 100 nM. Besides, in test [1] (setting [4]), the 50% effective concentration (EC50) is < 1000 nM.
As to `Nc1n[nH]c2ncc(-c3ccc(CNc4ncc(C(F)(F)F)cc4C(=O)Nc4ccc(C(F)(F)F)cc4)cc3)cc12` [Example 296], the IC50 against PDK1 (inhibition of PDK1 in vitro) was < 100 nM. The EC50 in test [1] (setting [2]) was < 1000 nM.
On PDK1 (inhibition of PDK1 in vitro), `Nc1n[nH]c2ncc(-c3ccc(CNc4ncc(C(F)(F)F)cc4C(=O)NC4COC4)cc3)cc12` [Example 298, 2-(4-(3-amino-1H-pyrazolo [3,4-b]pyridin-5-yl)benzylamino)-N-(oxetan-3-yl)-5-(trifluoromethyl) nicotinamide] gave an IC50 of 1000 to 5000 nM. For the same compound, the EC50 in test [1] (setting [2]) was > 10000 nM.
Take `CC(N)CCc1nc(-c2ccc(CNc3ncc(C(F)(F)F)cc3C(=O)Nc3ccc(F)cc3)cc2)cnc1N` (stereo not shown) [Example 86, 2-{4-[5-Amino-6-(3-amino-butyl)-pyrazin-2-yl]-benzylamino}-N-(4-fluoro-phenyl)-5-trifluoro-methyl-nicotinamide]: the IC50 on PDK1 (inhibition of PDK1 in vitro) is < 100 nM. For the same compound, the EC50 in test [1] (inhibition of P308 Akt in PC-3 cells using MSD) is < 1000 nM.
In the case of `Nc1ncnc2[nH]cc(-c3ccc(CNc4ncccc4C(=O)NCc4ccc(F)c(F)c4)s3)c12` [Example 4.8, 2-(((5-(4-amino-7H-pyrrolo[2,3-d]pyrimidin-5-yl)thiophen-2-yl)methyl)amino)-N-(3,4-difluorobenzyl)nicotinamide], the IC50 on PDK1 (setting [3]) was < 100 nM. Also, the EC50 in test [1] (setting [4]) is < 1000 nM.
Take `C[C@H](NC(=O)c1cc(C#N)cnc1NCc1ccc(-c2ccc(N)nc2)nc1)c1ccc(F)cc1` [Example 68, 2-[(6′-Amino-[2,3′]bipyridinyl-5-ylmethyl)-amino]-5-cyano-N-[(S)-1-(4-fluoro-phenyl)-ethyl]-nicotinamide]: the IC50 at PDK1 (inhibition of PDK1 in vitro) was < 100 nM. Further, the EC50 in test [1] (setting [2]) lay within 1000 to 10000 nM.
The compound `C[C@H](NC(=O)c1cccnc1NCc1ccc(-c2ccc3ncnc(NCCN)c3c2)s1)c1ccc(F)cc1` [Example 2.15, (S)-2-(((5-(4-(2-aminoethylamino)quinazolin-6-yl)thiophen-2-yl)methyl)amino)-N-(1-(4-fluorophenyl)ethyl)nicotinamide] registered an IC50 on PDK1 (setting [3]) of 100 to 1000 nM. The EC50 in test [1] (setting [4]) lay in the range of 1000 to 10000 nM.
Take `C[C@@H](NC(=O)c1cccnc1NCc1ccc(-c2ccc3ncnc(N)c3c2)s1)c1ccc(F)cc1` [Example 3.14, 2-({[5-(4-aminoquinazolin-6-yl)thiophen-2-yl]methyl}amino)-N-[(1R)-1-{4-fluorophenyl)ethyl]pyridine-3-carboxamide (TFA salt)]: the IC50 against PDK1 (setting [3]) was > 5000 nM. The EC50 in test [1] (setting [4]) was > 10000 nM.
For `NCCNc1n[nH]c2ncc(-c3ccc(CNc4ncc(C(F)(F)F)cc4C(=O)NCc4ccc(F)c(F)c4)cc3)cc12` [Example 153, 2-(4-(3-(2-amino-ethylamino)-1H-pyrazolo [3,4-b]pyridin-5-yl)benzylamino)-N-(3,4-difluorobenzyl)-5-(trifluoromethyl) nicotinamide], the IC50 against PDK1 (inhibition of PDK1 in vitro) is < 100 nM. Further, the EC50 in test [1] (setting [2]) was 1000 to 10000 nM.
For the compound `Nc1cnc(NCc2ccc(-c3ccc4ncnc(N)c4c3)s2)c(C(=O)NCc2ccc(F)c(F)c2)c1` [Ex. 8.4, 2-({[5-(4-aminoquinazolin-6-yl)thiophen-2-yl]methyl}amino)-N-(3,4-difluorobenzyl)-5-aminopyridine-3-carboxamide], the IC50 at PDK1 (setting [3]) was < 100 nM. In test [1] (setting [4]), the EC50 fell in the range of 1000 to 10000 nM.
Turning to `C[C@H](NC(=O)c1nc(C#N)cnc1NCC1CCC(c2cnc3[nH]nc(N)c3c2)CC1)c1ccc(F)c(F)c1` (stereo partly drawn) [Example 60, (S)-3-((4-(3-amino-1H-pyrazolo[3,4-b]pyridin-5-yl)cyclohexyl)methylamino)-6-cyano-N-(1-(3,4-difluorophenyl)ethyl)pyrazine-2-carboxamide], the IC50 on PDK1 (inhibition of PDK1 in vitro) is < 100 nM. Besides, in test [1] (setting [2]), the EC50 was < 1000 nM.
Consider `Nc1n[nH]c2ncc(-c3ccc(CNc4ncc(C(F)(F)F)cc4C(=O)NCC4CCCO4)cc3)cc12` (stereo not shown) [Example 265, 2-(4-(3-amino-1H-pyrazolo [3,4-b]pyridin-5-yl)benzylamino)-N-((tetrahydrofuran-2-yl)methyl)-5-(trifluoromethyl) nicotinamide], for which the IC50 on PDK1 (inhibition of PDK1 in vitro) is < 100 nM. The EC50 in test [1] (Homo sapiens, PC-3, 2 h, inhibition of P308 Akt in PC-3 cells using MSD) lay in the range of 1000 to 10000 nM.
For `Nc1ncnc2ccc(-c3ccc(CNc4ncc(S(N)(=O)=O)cc4C(=O)NCc4ccc(F)c(F)c4)s3)cc12` [Example 8.7.2, 2-({[5-(4-aminoquinazolin-6-yl)thiophen-2-yl]methyl}amino)-N-(3,4-difluorobenzyl)-5-sulfamoylpyridine-3-carboxamide], the IC50 against PDK1 (setting [3]) is < 100 nM. Moreover, the EC50 in test [1] (setting [4]) was in the range of 1000 to 10000 nM.
On to `CC(C)NS(=O)(=O)c1cnc(NCc2ccc(-c3ccc4ncnc(N)c4c3)s2)c(C(=O)NCc2ccc(F)c(F)c2)c1` [Example 8.7.9, 2-({[5-(4-aminoquinazolin-6-yl)thiophen-2-yl]methyl}amino)-N-(3,4-difluorobenzyl)-5-(propan-2-ylsulfamoyl) pyridine-3-carboxamide], for which the IC50 against PDK1 (setting [3]) was 100 to 1000 nM. Moreover, the EC50 in test [1] (Homo sapiens, PC-3, 2 h, inhibition of P308 Akt in PC-3 cells, MSD) lay in the range of 1000 to 10000 nM.
For the compound `CNC(=O)c1cc(S(=O)(=O)N2CCCCC2)cnc1NCc1ccc(-c2ccc3ncnc(N)c3c2)s1` [Example 8.6.19], on PDK1 (setting [3]), the IC50 was > 5000 nM. Further, in test [1] (setting [4]), the EC50 was > 10000 nM.
